# Experimental data reported in patent US8012975B2, “Antitumoral analogs of ET-743” (Pharma Mar, S.A., priority 2000, dated 2011).
# Like-named read-outs stand apart in the source and are kept apart here.
# How the values were obtained:
# [1] = test system: A-549; test: Cytotoxic activity IC50, A-549
# [2] = test system: P-388; test: Cytotoxic activity IC50, P-388
# [3] = test system: DU-145; test: Cytotoxic activity IC50, DU-145
# [4] = test system: MEL-28; test: Cytotoxic activity IC50, MEL-28
# [5] = test system: HT-29; test: Cytotoxic activity IC50, HT-29
# [6] = test system: P-388
# [7] = test system: MEL-28
# [8] = test system: DU-145
# [9] = test system: A-549
# [10] = test system: HT-29
# [11] = Homo sapiens, A549, read-out: CYTOTOXIC ACTIVITIY IC50 (μM) A-549, A-549
# [12] = Mus musculus, P388, read-out: CYTOTOXIC ACTIVITIY IC50 (μM) P-388
# [13] = Homo sapiens, DU-145, read-out: CYTOTOXIC ACTIVITIY IC50 (μM) DU-145, DU-145
# [14] = Homo sapiens, SK-MEL-28, read-out: CYTOTOXIC ACTIVITIY IC50 (μM) MEL-28, MEL-28
# [15] = Homo sapiens, HT-29, read-out: CYTOTOXIC ACTIVITIY IC50 (μM) HT-29, HT-29
Compound,"IC50 [1, 11] [µM]","IC50 [2, 12] [µM]","IC50 [3, 13] [µM]",IC50 [6] [nM],IC50 [7] [nM],IC50 [8] [nM],IC50 [9] [nM],IC50 [10] [nM],further results
C=CCOc1c(C)c2c(c3c1CC1[C@H]4c5c(cc(C)c(OC)c5OCOC)C[C@@H]([C@H](C#N)N1[C@H]3CO)N4C)OCO2 (some centres unmarked),0.2,0.2,0.2,–,–,–,–,–,"IC50 [4, 14]: 0.2 µM; IC50 [5, 15]: 0.2 µM"
CCCCC(=O)NC[C@H]1c2c(c(OC(C)=O)c(C)c3c2OCO3)CC2[C@H]3c4c(cc(C)c(OC)c4O)C[C@@H]([C@H](C#N)N21)N3C (some centres unmarked),0.007,0.007,0.007,–,–,–,–,–,"IC50 [4, 14]: 0.007 µM; IC50 [5, 15]: 0.007 µM"
COc1c(C)cc2c(c1O)[C@@H]1C3Cc4c(OC(C)=O)c(C)c5c(c4[C@H](CNC(=O)/C=C/c4cccc(C(F)(F)F)c4)N3[C@@H](C#N)[C@H](C2)N1C)OCO5 (some centres unmarked),–,–,–,0.1,0.1,0.1,0.1,0.1,–
COc1c(C)cc2c(c1O)[C@@H]1C3Cc4c(OC(C)=O)c(C)c5c(c4[C@H](CNC(=O)[C@H](C)NC(=O)/C=C/c4ccccc4)N3[C@@H](C#N)[C@H](C2)N1C)OCO5 (some centres unmarked),–,–,–,–,–,–,–,0.1,–
COc1c(C)cc2c(c1O)[C@@H]1C3Cc4c(OC(C)=O)c(C)c5c(c4[C@H](CNC(=O)CCc4ccccc4)N3[C@@H](C#N)[C@H](C2)N1C)OCO5 (some centres unmarked),–,–,–,0.1,0.1,0.1,0.1,0.1,–
COc1c(C)cc2c(c1O)[C@@H]1C3Cc4c(OC(C)=O)c(C)c5c(c4[C@H](CNC(=O)Cc4ccccc4)N3[C@@H](C#N)[C@H](C2)N1C)OCO5 (some centres unmarked),–,–,–,0.1,0.1,0.1,0.1,0.1,–
CCC(=O)NC[C@H]1c2c(c(OC(C)=O)c(C)c3c2OCO3)CC2[C@H]3c4c(cc(C)c(OC)c4O)C[C@@H]([C@H](C#N)N21)N3C (some centres unmarked),–,–,–,0.1,0.1,0.1,0.1,0.1,–
C/C=C/C(=O)NC[C@H]1c2c(c(OC(C)=O)c(C)c3c2OCO3)CC2[C@H]3c4c(cc(C)c(OC)c4O)C[C@@H]([C@H](C#N)N21)N3C (some centres unmarked),0.0008,–,0.0008,0.1,0.1,–,–,0.1,–
C/C=C/C(=O)NC[C@H]1c2c(c(OC(C)=O)c(C)c3c2OCO3)CC2[C@H]3c4c(cc(C)c(OC)c4O)C[C@@H]([C@H](O)N21)N3C (some centres unmarked),0.0008,–,0.0008,0.1,0.1,–,–,0.1,–
COc1c(C)cc2c(c1O)[C@@H]1C3Cc4c(OC(C)=O)c(C)c5c(c4[C@H](CNC(=O)[C@H](C)NC(=O)Cc4ccccc4)N3[C@@H](C#N)[C@H](C2)N1C)OCO5 (some centres unmarked),–,–,–,0.1,0.1,0.1,0.1,0.1,–
COc1c(C)cc2c(c1O)[C@@H]1C3Cc4c(OC(C)=O)c(C)c5c(c4[C@H](COC(=O)CCc4ccccc4)N3[C@@H](C#N)[C@H](C2)N1C)OCO5 (some centres unmarked),–,–,–,0.1,0.1,0.1,0.1,0.1,–
C=CCOC(=O)Oc1c(C)c2c(c3c1CC1[C@H]4c5c(cc(C)c(OC)c5O)C[C@@H]([C@H](C#N)N1[C@H]3CNC(=O)/C=C/c1ccccc1)N4C)OCO2 (some centres unmarked),–,–,–,0.1,0.1,0.1,0.1,0.1,–
C=CCOC(=O)Oc1c(C)c2c(c3c1CC1[C@H]4c5c(cc(C)c(OC)c5O)C[C@@H]([C@H](O)N1[C@H]3CNC(=O)/C=C/c1ccccc1)N4C)OCO2 (some centres unmarked),–,–,–,0.1,0.1,0.1,0.1,0.1,–
C=CCOC(=O)Oc1c(C)c2c(c3c1CC1[C@H]4c5c(cc(C)c(OC)c5O)C[C@@H]([C@H](C#N)N1[C@H]3CNC(=O)CCc1ccccc1)N4C)OCO2 (some centres unmarked),–,–,–,0.1,0.1,0.1,0.1,0.1,–
C=CCOC(=O)Oc1c(C)c2c(c3c1CC1[C@H]4c5c(cc(C)c(OC)c5O)C[C@@H]([C@H](O)N1[C@H]3CNC(=O)CCc1ccccc1)N4C)OCO2 (some centres unmarked),–,–,–,0.1,0.1,0.1,0.1,0.1,–
COc1c(C)cc2c(c1O)[C@@H]1C3Cc4c(OC(=O)C(F)(F)C(F)(F)C(F)(F)F)c(C)c5c(c4[C@H](CNC(=O)CCc4ccccc4)N3[C@@H](C#N)[C@H](C2)N1C)OCO5 (some centres unmarked),–,0.006,–,–,–,–,–,–,"IC50 ([1]; Homo sapiens, A549, read-out: CYTOTOXIC ACTIVITIY IC50 (μM) A-549): 0.006 µM; IC50 ([3]; Homo sapiens, DU-145, read-out: CYTOTOXIC ACTIVITIY IC50 (μM) DU-145): 0.006 µM; IC50 ([4]; Homo sapiens, SK-MEL-28, read-out: CYTOTOXIC ACTIVITIY IC50 (μM) MEL-28): 0.006 µM; IC50 ([5]; Homo sapiens, HT-29, read-out: CYTOTOXIC ACTIVITIY IC50 (μM) HT-29): 0.006 µM"
COc1c(C)cc2c(c1OC(C)=O)[C@@H]1C3Cc4c(OC(=O)CCl)c(C)c5c(c4[C@H](CNC(=O)CCc4ccccc4)N3[C@@H](C#N)[C@H](C2)N1C)OCO5 (some centres unmarked),0.01,0.01,0.01,–,–,–,–,–,"IC50 [4, 14]: 0.01 µM; IC50 [5, 15]: 0.01 µM"
COC1=C(C)C(=O)C2=C(C1=O)[C@H](CNC(=O)[C@H](C)NC(C)=O)N1C(C2)[C@H]2c3c(cc(C)c(OC)c3O)C[C@@H]([C@@H]1C#N)N2C (some centres unmarked),0.08,0.08,0.08,–,–,–,–,–,"IC50 [4, 14]: 0.08 µM; IC50 [5, 15]: 0.08 µM"
COc1c(C)cc2c(c1O)[C@@H]1C3Cc4c(OC(C)=O)c(C)c5c(c4[C@H](CNC(=O)/C=C/c4cccc(C(F)(F)F)c4)N3[C@@H](O)[C@H](C2)N1C)OCO5 (some centres unmarked) [drawing 109],–,–,–,–,–,–,–,–,"IC50 ([1]; read-out: CYTOTOXIC ACTIVITIY IC50 (μM) A-549, A-549): 0.0001 µM; IC50 ([2]; read-out: CYTOTOXIC ACTIVITIY IC50 (μM) P-388, P-388): 0.0001 µM; IC50 ([3]; read-out: CYTOTOXIC ACTIVITIY IC50 (μM) DU-145, DU-145): 0.0001 µM; IC50 ([4]; read-out: CYTOTOXIC ACTIVITIY IC50 (μM) MEL-28, MEL-28): 0.0001 µM; IC50 ([5]; read-out: CYTOTOXIC ACTIVITIY IC50 (μM) HT-29, HT-29): 0.0001 µM"
CCCC(=O)NC[C@H]1c2c(c(OC(C)=O)c(C)c3c2OCO3)CC2[C@H]3c4c(cc(C)c(OC)c4O)C[C@@H]([C@H](O)N21)N3C (some centres unmarked) [drawing 114],0.0008,0.0008,–,–,–,0.1,–,0.1,"IC50 [4, 14]: 0.0008 µM"
COc1c(C)cc2c(c1O)[C@@H]1C3Cc4c(OC(C)=O)c(C)c5c(c4[C@H](CNC(=O)Cc4ccccc4)N3[C@@H](O)[C@H](C2)N1C)OCO5 (some centres unmarked) [drawing 124],0.0007,0.0007,0.0007,–,–,–,–,–,"IC50 [4, 14]: 0.0007 µM; IC50 [5, 15]: 0.0007 µM"
CCCCCC(=O)NC[C@H]1c2c(c(OC(C)=O)c(C)c3c2OCO3)CC2[C@H]3c4c(cc(C)c(OC)c4O)C[C@@H]([C@H](C#N)N21)N3C (some centres unmarked) [drawing 126],–,–,–,0.1,–,–,–,–,–
COc1c(C)cc2c(c1O)[C@@H]1C3Cc4c(OC(C)=O)c(C)c5c(c4[C@H](CNC(=O)[C@H](C)NC(=O)Cc4ccccc4)N3[C@@H](O)[C@H](C2)N1C)OCO5 (some centres unmarked) [drawing 137],0.0007,0.0007,0.0007,–,–,–,–,–,"IC50 [4, 14]: 0.0007 µM; IC50 [5, 15]: 0.0007 µM"
CCCC(=O)OC[C@H]1c2c(c(OC(C)=O)c(C)c3c2OCO3)CC2[C@H]3c4c(cc(C)c(OC)c4OCOC)C[C@@H]([C@H](C#N)N21)N3C (some centres unmarked) [drawing 148],–,0.1,–,–,–,–,–,–,IC50 ([7]; human): 100 nM; IC50 ([8]; human): 100 nM; IC50 ([9]; human): 100 nM; IC50 ([10]; human): 100 nM
COc1c(C)cc2c(c1O)[C@@H]1C3Cc4c(OC(C)=O)c(C)c5c(c4[C@H](COC(=O)/C=C/c4ccccc4)N3[C@@H](O)[C@H](C2)N1C)OCO5 (some centres unmarked) [drawing 159],–,–,–,0.1,–,–,–,–,–
